In patent US7109338B2, “1,2-disubstituted 1,4-dihydro-4-oxoquinoline compounds” (priority 1999, dated 2006) one finds IC50, CC50 and melting point data, which are given here for eight compounds.

Structures are written as SMILES. In brackets after ≈: the same amount, converted by molar mass.

In series [1] the test system is Poliovirus type 1 (Polio 1, Sabin). Nature of the series: microbe, parasite or virus in culture. It counts as cell-based. Conditions: Enterovirus C, HeLa S3, read-out: IC50 Polio 1.
For series [2], the system named is human rhinovirus type 1B (HRV 1B, B632). As to the kind of experiment: Anti-rhinovirus activity (MTT), HRV1B. It counts as cell-based. Conditions: Human rhinovirus sp., HRV1B; HeLa (Ohio strain) cells, MTT method, 33° C.; read-out: IC50 HRV1B. In general terms: Formazan colour is commonly taken as a measure of viable cells.
The test system of another series is HRV 89 (41617-Gallo). Nature of the series: Anti-rhinovirus activity (MTT), HRV89. It counts as cell-based, human rhinovirus. Conditions: Human rhinovirus sp., HRV89; HeLa (Ohio strain) cells, MTT method, 33° C.; read-out: IC50 HRV89.
A short description of series [3]: Cytotoxicity (MTT, without virus), HeLa(Ohio). Conditions: human, HeLa (Ohio strain) cells (uninfected).
Series [4] has as its system echovirus type 11 (Echo 11, Gregory). As to the kind of experiment: In vitro anti-picornavirus activity (MTT), Echo 11. To be noted: Enterovirus B; HeLa-S3 cells, MTT method, 37° C. It counts as cell-based.
Another series concerns HRV 2 (HGP). As to the kind of experiment: Anti-rhinovirus activity (MTT), HRV2. It counts as cell-based, human rhinovirus. Conditions: Human rhinovirus sp., HRV2; HeLa (Ohio strain) cells, MTT method, 33° C.; read-out: IC50 HRV2.
A short description of series [5]: Cytotoxicity (MTT, without virus), HeLa-S3. To be noted: human, HeLa-S3 cells (uninfected).
Series [6] relates to coxsackievirus type A7 (CA7). As to the kind of experiment: In vitro anti-picornavirus activity (MTT), CA7. To be noted: Coxsackievirus; HeLa-S3 cells, MTT method, 37° C. It counts as cell-based.
Series [7] deals with coxsackievirus type B4 (CB4,JVB). Nature of the series: In vitro anti-picornavirus activity (MTT), CB4. It counts as cell-based. To be noted: Coxsackievirus; HeLa cells, MTT method, 37° C.
Series [8] is described as follows: Cytotoxicity (MTT, without virus), HeLa. Conditions: human, HeLa cells (uninfected).
The next series concerns HRV1A (E28). Nature of the series: Anti-rhinovirus activity (MTT), HRV1A. It counts as cell-based, human rhinovirus. Conditions: Human rhinovirus sp., HRV1A, HeLa, read-out: IC50 HRV 1A.
A further series has as its system HRV14 (1059). Nature of the series: Anti-rhinovirus activity (MTT), HRV14. It counts as cell-based, human rhinovirus. To be noted: Human rhinovirus sp., HRV14; HeLa (Ohio strain) cells, MTT method, 33° C.; read-out: IC50 HRV 14.

As usually defined, the IC50 is the concentration that inhibits the measured activity by half. By CC50 is commonly meant the concentration at which the toxic effect on the cells reaches its halfway point. Usually melting point stands for the temperature, or range, at which the solid turns liquid. `CCn1c(-c2ccccc2)c(C)c(=O)c2cc(C(C)C)ccc21` [Compound A37, 1-Ethyl-2-phenyl-3-methyl-6-isopropyl-1,4-dihydro-4-oxoquinoline] gave a melting point of 159 to 165 °C. Further, in series [1], the 50% inhibitory concentration (IC50) was found to be 1.1 µg/mL (≈ 3.6 µM). The IC50 in [2] is 1 µg/mL (≈ 3.27 µM). The half-maximal inhibitory concentration (IC50) in the series on HRV 89 (41617-Gallo) amounted to 0.54 µg/mL (≈ 1.77 µM). This compound also displayed a half-maximal cytotoxic concentration (CC50) at 4 days in series [3] of 11 µg/mL (≈ 36 µM). In series [4], this compound had an IC50 of 0.91 µg/mL (≈ 2.98 µM). The IC50 in the series with HRV 2 (HGP) stood at 0.83 µg/mL (≈ 2.72 µM). Besides, in series [5], half-maximal cytotoxicity (CC50 at 4 days) was put at 12 µg/mL (≈ 39.3 µM). Half-maximal inhibition in series [6] (IC50) required 3.8 µg/mL (≈ 12.4 µM). Also, the IC50 in series [7] came to 6.7 µg/mL (≈ 21.9 µM). This compound yielded a CC50 at 4 days in series [8] of 11 µg/mL (≈ 36 µM).

The compound `CCn1c(-c2ccc(OC)c(C)c2)c(C)c(=O)c2c(C)c(OCC(C)C)ccc21` [Compound A191, 1-Ethyl-2-(3-methyl-4-methoxyphenyl)-3,5-dimethyl-6-isobutoxy-1,4-dihydro-4-oxoquinoline] returned a melting point of 149 °C. In series [1], the IC50 is 0.4 µg/mL (≈ 1.02 µM). Besides, in [2], the IC50 is 1.3 µg/mL (≈ 3.3 µM). In the series with HRV 89 (41617-Gallo), the IC50 came out at 0.2 µg/mL (≈ 0.508 µM). The same compound gave a CC50 at 4 days in [3] of over 4 µg/mL. Further, in [4], the IC50 came to 0.19 µg/mL (≈ 0.483 µM). Moreover, in the series on HRV 2 (HGP), the IC50 amounted to 0.15 µg/mL (≈ 0.381 µM). Further, in series [5], the cytotoxic concentration (CC50) at 4 days was over 4 µg/mL. Besides, the midpoint of inhibition in [6], the IC50, lay at 2.5 µg/mL (≈ 6.35 µM). Moreover, the concentration for half-maximal inhibition (IC50) in series [7] was 1.6 µg/mL (≈ 4.07 µM). The same compound displayed a CC50 at 4 days in [8] of over 4 µg/mL.

As for `CCn1c(-c2ccco2)cc(=O)c2cc(C(C)C)ccc21` [Compound A304, 1-Ethyl-2-(2-furyl)-6-isopropyl-1,4-dihydro-4-oxoquinoline], the melting point was 70 to 73 °C. In addition, the half-inhibitory concentration (IC50) in series [1] amounted to 0.8 µg/mL (≈ 2.84 µM). The IC50 in series [2] is 0.76 µg/mL (≈ 2.7 µM). Besides, in the series with HRV 89 (41617-Gallo), the half-maximal inhibitory concentration (IC50) stood at 0.9 µg/mL (≈ 3.2 µM). This compound came in with a CC50 at 4 days in series [3] of 19 µg/mL (≈ 67.5 µM). The compound also had a 50% inhibitory concentration (IC50) in series [4] of 0.35 µg/mL (≈ 1.24 µM). For the same compound, in the series with HRV 2 (HGP), the half-inhibitory concentration (IC50) stood at 0.34 µg/mL (≈ 1.21 µM). Also, the CC50 at 4 days in series [5] was over 20 µg/mL. Half-maximal inhibition in series [6] (IC50) required 3.6 µg/mL (≈ 12.8 µM). Further, the IC50 in series [7] is 1.9 µg/mL (≈ 6.75 µM). In addition, in series [8], the CC50 at 4 days was 18 µg/mL (≈ 64 µM).

Consider `CCn1c2c(c(=O)c3cc(C(C)C)ccc31)Cc1ccccc1-2` [Compound B2, 5-Ethyl-8-isopropyl-5,10-dihydro-11H-indeno[1,2-b]quinolin-10-one], for which the half-inhibitory concentration (IC50) in series [1] turned out to be 0.58 µg/mL (≈ 1.91 µM); in the series with HRV1A (E28), 5 µg/mL (≈ 16.5 µM); in the series with HRV14 (1059) it was 0.65 µg/mL (≈ 2.14 µM); in series [2], 0.54 µg/mL (≈ 1.78 µM); in the series with HRV 89 (41617-Gallo) it was 0.48 µg/mL (≈ 1.58 µM); in [4], 0.19 µg/mL (≈ 0.626 µM). In addition, the half-maximal inhibitory concentration (IC50) with HRV 2 (HGP) turned out to be 0.15 µg/mL (≈ 0.494 µM); in series [6] it was 3.1 µg/mL (≈ 10.2 µM); in series [7] it was 0.97 µg/mL (≈ 3.2 µM). The CC50 at 4 days in [3], in series [5] and in series [8] was over 10 µg/mL throughout.

For `CCn1c2c(c(=O)c3cc(C(C)C)ccc31)Cc1ccsc1-2` [Compound D50, 10-Ethyl-7-isopropyl-5,10-dihydro-4H-thieno[3′,2′:4,5]cyclopenta[1,2-b]quinolin-5-one], the melting point lay in the range of 168 to 169 °C. Moreover, the IC50 in series [1] stood at 0.64 µg/mL (≈ 2.07 µM). Also, the half-maximal inhibitory concentration (IC50) with HRV1A (E28) was determined as 2.2 µg/mL (≈ 7.11 µM). Further, the IC50 with HRV14 (1059) was 1.3 µg/mL (≈ 4.2 µM). Also, the IC50 in [2] was 0.25 µg/mL (≈ 0.808 µM). The IC50 in the series on HRV 89 (41617-Gallo) is 0.41 µg/mL (≈ 1.32 µM). The same compound yielded a 50% cytotoxic concentration (CC50) at 4 days in series [3] of over 10 µg/mL. Half-maximal inhibition in series [4] (IC50) was put at 0.27 µg/mL (≈ 0.873 µM). The IC50 in the series on HRV 2 (HGP) came out at 0.2 µg/mL (≈ 0.646 µM). This compound returned a CC50 at 4 days in [5] of over 10 µg/mL. For the same compound, the 50% inhibitory concentration (IC50) in series [6] was determined as 1.9 µg/mL (≈ 6.14 µM). This compound gave a concentration for half-maximal inhibition (IC50) in series [7] of 0.82 µg/mL (≈ 2.65 µM). Besides, the midpoint of cytotoxicity in series [8], the CC50 at 4 days, lay at 7.8 µg/mL (≈ 25.2 µM).

For `CCn1c2c(c(=O)c3cc(C(C)C)ccc31)Cc1cc(C)sc1-2` [Compound D51, 10-Ethyl-7-isopropyl-2-methyl-5,10-dihydro-4H-thieno[3′,2′:4,5]cyclopenta[1,2-b]quinolin-5-one], the concentration for half-maximal inhibition (IC50) in series [1] is 0.28 µg/mL (≈ 0.866 µM); in the series with HRV1A (E28), 3.1 µg/mL (≈ 9.58 µM); with HRV14 (1059) it was 0.82 µg/mL (≈ 2.54 µM); in series [2] it was 0.59 µg/mL (≈ 1.82 µM); in the series on HRV 89 (41617-Gallo), 0.35 µg/mL (≈ 1.08 µM); in series [4], 0.21 µg/mL (≈ 0.649 µM). For the same compound, the values for the IC50 (in the series with HRV 2 (HGP); in series [6]; in series [7]) were 0.27 µg/mL (≈ 0.835 µM), 1.1 µg/mL (≈ 3.4 µM) and 0.72 µg/mL (≈ 2.23 µM), respectively. The CC50 at 4 days in series [3], in series [5] and in [8] was over 5 µg/mL throughout.

`CCn1c2c(c(=O)c3cc(C(C)C)ccc31)Cc1c(C)csc1-2` [Compound D52, 10-Ethyl-7-isopropyl-3-methyl-5,10-dihydro-4H-thieno[3′,2′:4,5]cyclopenta[1,2-b]quinolin-5-one]: the melting point is 195 °C (dec.). In addition, the 50% inhibitory concentration (IC50) in series [1] came to 1 µg/mL (≈ 3.09 µM). In the series on HRV1A (E28), the half-maximal inhibitory concentration (IC50) came out at 3.1 µg/mL (≈ 9.58 µM). Besides, the IC50 in the series with HRV14 (1059) is 1.1 µg/mL (≈ 3.4 µM). Also, in series [2], the IC50 amounted to 0.89 µg/mL (≈ 2.75 µM). For the same compound, the IC50 in the series with HRV 89 (41617-Gallo) worked out at 0.85 µg/mL (≈ 2.63 µM). The compound also came in with a CC50 at 4 days in series [3] of over 5 µg/mL. The compound also had an IC50 in series [4] of 0.55 µg/mL (≈ 1.7 µM). In the series with HRV 2 (HGP), the IC50 is 0.86 µg/mL (≈ 2.66 µM). The same compound gave a CC50 at 4 days in [5] of over 5 µg/mL. Further, the concentration for half-maximal inhibition (IC50) in series [6] was over 5 µg/mL. This compound also had an IC50 in series [7] of 3 µg/mL (≈ 9.27 µM). This compound also had a CC50 at 4 days in [8] of over 5 µg/mL.

`CCn1c2c(c(=O)c3cc(C(C)C)ccc31)Cc1c-2ccn1C` [Compound D53, 4-Ethyl-7-isopropyl-1-methyl-4,9-dihydro-10H-pyrrolo[2′,3′:4,5]cyclopenta[1,2-b]quinolin-9-one] gave a melting point of 91 to 93 °C. Moreover, in series [1], the IC50 came to 1.8 µg/mL (≈ 5.87 µM). For the same compound, in the series with HRV1A (E28), the IC50 is over 10 µg/mL. The half-maximal inhibitory concentration (IC50) with HRV14 (1059) was 2.3 µg/mL (≈ 7.51 µM). For the same compound, the half-inhibitory concentration (IC50) in series [2] was 1.6 µg/mL (≈ 5.22 µM). The IC50 in the series with HRV 89 (41617-Gallo) came out at 1.4 µg/mL (≈ 4.57 µM). Besides, the CC50 at 4 days in [3] is over 10 µg/mL. In series [4], this compound came in with a half-maximal inhibitory concentration (IC50) of 0.68 µg/mL (≈ 2.22 µM). Moreover, the 50% inhibitory concentration (IC50) with HRV 2 (HGP) worked out at 0.91 µg/mL (≈ 2.97 µM). The 50% cytotoxic concentration (CC50) at 4 days in [5] is over 10 µg/mL. Moreover, the IC50 in series [6] is over 10 µg/mL. Besides, in [7], the concentration for half-maximal inhibition (IC50) was over 3.3 µg/mL. Also, in [8], the 50% cytotoxic concentration (CC50) at 4 days was over 10 µg/mL.
